Data taken from article PMC6316713, “Design, Synthesis, Experimental and Theoretical Characterization of a New Multitarget 2-Thienyl-N-Acylhydrazone Derivative” (Pharmaceuticals, 2018).

Key:
PDE4B1 = target: T1, PDE4B1 (Homo sapiens, UniProt Q07343); experiment: IMAP FP PDE assay, % inhibition at […]; format: biochemical; settings: read-out: PDE4B1 ^a
T1 construct: gene PDE4B; isoform PDE4B1, human recombinant

PDE4A1A [1] = target: T2, PDE4A1A (Homo sapiens, UniProt P27815); experiment: IMAP FP PDE assay, % inhibition at […]; format: biochemical
T2 construct: gene PDE4A; isoform PDE4A1A, human recombinant
T2 sequence (P27815 265-886 limits assumed): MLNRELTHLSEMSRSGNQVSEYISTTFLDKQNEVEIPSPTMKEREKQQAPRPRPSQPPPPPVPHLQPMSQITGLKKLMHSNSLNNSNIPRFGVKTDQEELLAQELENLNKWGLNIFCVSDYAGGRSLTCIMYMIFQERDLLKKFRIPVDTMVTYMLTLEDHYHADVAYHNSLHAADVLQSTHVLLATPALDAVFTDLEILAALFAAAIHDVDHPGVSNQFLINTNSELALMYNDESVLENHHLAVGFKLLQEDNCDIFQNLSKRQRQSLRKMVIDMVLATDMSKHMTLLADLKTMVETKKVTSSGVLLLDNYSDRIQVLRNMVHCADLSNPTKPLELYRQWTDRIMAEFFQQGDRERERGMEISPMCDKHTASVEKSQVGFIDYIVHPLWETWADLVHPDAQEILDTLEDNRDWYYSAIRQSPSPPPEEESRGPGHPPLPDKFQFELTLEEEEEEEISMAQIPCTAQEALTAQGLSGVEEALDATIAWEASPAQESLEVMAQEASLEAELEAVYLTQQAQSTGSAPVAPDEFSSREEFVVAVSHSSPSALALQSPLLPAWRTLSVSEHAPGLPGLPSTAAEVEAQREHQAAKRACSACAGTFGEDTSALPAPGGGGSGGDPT

PDE4D3 = target: T3, PDE4D3 (Homo sapiens, UniProt Q08499); experiment: IMAP FP PDE assay, % inhibition at […]; format: biochemical
T3 construct: gene PDE4D; isoform PDE4D3, human recombinant
T3 sequence (Q08499 153-809): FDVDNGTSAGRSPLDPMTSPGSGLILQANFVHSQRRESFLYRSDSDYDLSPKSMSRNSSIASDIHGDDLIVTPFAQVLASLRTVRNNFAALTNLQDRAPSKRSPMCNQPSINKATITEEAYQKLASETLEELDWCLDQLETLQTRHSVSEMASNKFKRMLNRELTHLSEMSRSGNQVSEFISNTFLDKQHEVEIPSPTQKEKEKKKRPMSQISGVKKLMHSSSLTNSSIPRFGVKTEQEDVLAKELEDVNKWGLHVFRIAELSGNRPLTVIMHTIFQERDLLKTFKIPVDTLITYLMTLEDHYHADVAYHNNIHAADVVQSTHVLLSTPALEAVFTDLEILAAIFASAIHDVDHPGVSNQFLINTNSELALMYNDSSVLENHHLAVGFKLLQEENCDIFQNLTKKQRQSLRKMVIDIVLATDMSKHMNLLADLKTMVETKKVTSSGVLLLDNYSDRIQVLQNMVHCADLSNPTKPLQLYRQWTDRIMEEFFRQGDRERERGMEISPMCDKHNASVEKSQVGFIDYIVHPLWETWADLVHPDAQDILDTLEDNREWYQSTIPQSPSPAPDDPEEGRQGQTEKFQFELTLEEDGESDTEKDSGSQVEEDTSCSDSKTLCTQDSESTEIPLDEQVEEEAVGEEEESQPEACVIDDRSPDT

PDE4A1A [2] = target: T2, PDE4A1A; experiment: IMAP FP PDE assay (FAM-cAMP), concentration-response; format: biochemical
adenosine A2A receptor = target: T4, adenosine A2A receptor (Homo sapiens, UniProt P29274); experiment: radioligand displacement with [3H]-CGS21680; format: binding
T4 construct: gene ADORA2A; human recombinant, expressed in HEK 293 cells
T4 sequence (P29274 whole entry): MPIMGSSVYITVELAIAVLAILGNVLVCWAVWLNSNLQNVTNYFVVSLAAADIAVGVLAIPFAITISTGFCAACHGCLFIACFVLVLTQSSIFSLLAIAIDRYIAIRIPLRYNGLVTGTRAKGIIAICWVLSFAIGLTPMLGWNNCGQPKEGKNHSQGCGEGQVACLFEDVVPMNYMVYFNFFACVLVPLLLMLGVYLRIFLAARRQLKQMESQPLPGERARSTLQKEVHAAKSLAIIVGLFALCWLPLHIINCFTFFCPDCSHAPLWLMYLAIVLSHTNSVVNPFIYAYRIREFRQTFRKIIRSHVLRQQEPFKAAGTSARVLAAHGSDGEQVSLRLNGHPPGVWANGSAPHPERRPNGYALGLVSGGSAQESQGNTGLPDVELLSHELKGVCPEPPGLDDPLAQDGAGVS

T1 sequence (Q07343 whole entry, canonical isoform): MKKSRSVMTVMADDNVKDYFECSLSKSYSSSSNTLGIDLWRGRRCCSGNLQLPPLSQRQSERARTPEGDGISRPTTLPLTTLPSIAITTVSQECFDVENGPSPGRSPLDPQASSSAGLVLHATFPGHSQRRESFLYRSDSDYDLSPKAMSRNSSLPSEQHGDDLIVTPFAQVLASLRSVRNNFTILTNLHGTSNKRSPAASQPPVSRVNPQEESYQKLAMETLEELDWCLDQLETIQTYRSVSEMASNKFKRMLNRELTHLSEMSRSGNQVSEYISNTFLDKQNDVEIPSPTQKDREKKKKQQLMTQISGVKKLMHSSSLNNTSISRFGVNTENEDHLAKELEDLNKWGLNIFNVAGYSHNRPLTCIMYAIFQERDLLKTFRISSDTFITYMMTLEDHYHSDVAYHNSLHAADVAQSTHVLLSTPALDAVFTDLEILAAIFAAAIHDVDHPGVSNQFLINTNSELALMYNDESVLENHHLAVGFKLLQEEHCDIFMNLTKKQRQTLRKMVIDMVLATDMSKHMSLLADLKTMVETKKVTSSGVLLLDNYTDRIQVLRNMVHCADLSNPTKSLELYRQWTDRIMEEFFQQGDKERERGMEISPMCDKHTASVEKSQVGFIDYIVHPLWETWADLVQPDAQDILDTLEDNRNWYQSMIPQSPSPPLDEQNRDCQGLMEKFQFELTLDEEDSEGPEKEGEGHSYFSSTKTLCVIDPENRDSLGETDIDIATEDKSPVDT

| SMILES | inhibition at 10 µM (PDE4B1) | inhibition at 10 µM (PDE4A1A [1]) | inhibition at 10 µM (PDE4D3) | IC50 (PDE4A1A [2]) | Ki (adenosine A2A receptor) |
| --- | --- | --- | --- | --- | --- |
| COc1ccc(/C=N/NC(=O)c2cccs2)cc1OC [compound 3, LASSBio-1834] | 48% | 53% |  |  |  |
| COc1ccc(/C=N/N(C)C(=O)c2cccs2)cc1OC [compound 4, LASSBio-1835] | 44% |  | 40% | 1.08 µM | 1.5 µM |
